Assay results reported in US20160264593A1 (priority 2013, published 2016).

Experiment: in vivo
Design: species or system SD rats
Conditions: rat, 1.4 mg/kg; for Kp: AUC(0-t) ratio of liver over plasma
Description: 113 was dissolved in 4% NaHCO3 in saline for IV administration. The detailed procedure of dosing solution preparation was presented in Appendix I.
15 animals were placed on the study. The animals in IV arm were free access to food and water. For PO dose group, the animals were fasted overnight prior to dosing and the food was resumed 4 hours postdose.
One extra animal was used for blank liver, brain and plasma generation (5 mL per animal). The resulting blank liver, brain and plasma were then applied to the development of bioanalytical method and sample bioanalysis for the entire study.
The IV injection was conducted via foot dorsal vein. PO via oral gavage.
Blood collection: The animal is restrained manually. Approximately 200 μL of blood/time point is collected into sodium heparin tube via cardiac puncture for terminal bleeding (anesthetized under carbon dioxide). Blood sample will be put on ice and centrifuged to obtain plasma sample (2000 g, 5 min under 4° C.) within 10 minutes.
Liver collection: The animal will be euthanized with carbon dioxide inhalation. Open abdominal cavity with scissor to expose internal organs. Hold the carcass in an upright position and allow the organs to fall forward. Cut the connective tissues and remove the organs. Then the organs are rinsed with cold saline, dried on filtrate paper, placed into a screw-top tube and weighed, snap frozen by placing into dry-ice immediately.
Brain collection: Make a mid-line incision in the animals scalp and retract the skin. Using small bone cutters and rongeurs, remove the skull overlying the brain. Remove the brain using a spatula and rinse with cold saline, dried on filtrate paper, placed into a screw-top tube and weighed, snap frozen by placing into dry-ice immediately. Brain tissue will be homogenized for 2 min with 3 volumes (v/w) of homogenizing solution (PBS pH 7.4) right before analysis. Plasma, brain and liver samples were stored at approximately −80° C. until analysis. The backup samples will be discarded after three weeks after in-life completion unless requested. The unused dosing solutions will be discarded within three weeks after completion of the study.
The PK parameters were determined by non-compartmental model of non-compartmental analysis tool, Pharsight Phoenix WinNonlin® 6.2 software.
Concentration data within 80%-120% of LLOQ was considered within normal instrumental variation and presented in the results.
Time points were automatic selected by “best fit” model for terminal half life estimation as the first option. Manual selection was applied when “best fit” could not well define the terminal phase.

[1] = male, Sprague-Dawley (SD), iv, 6 hr
[2] = male, SD, iv, Liver-plasma concentration ratio of 113
[3] = male, SD, iv, liver concentration of 113
[4] = male, SD, iv, plasma concentration of 113
[5] = male, SD, po, plasma concentration of 113
[6] = male, Sprague-Dawley, iv, Brain-plasma concentration ratio of 113
[7] = male, Sprague-Dawley, iv, brain concentration of 113

With CN1CCN(C(=O)C2C3CCC(O3)C2C(=O)O)CC1 (stereo not drawn) [Compound 100, 3-(4-methylpiperazine-1-carbonyl)-7-oxa-bicyclo[2,2,1]-heptane-2-carboxylic acid] the AUC(0-inf) (male, Sprague-Dawley (SD), iv) was 2830 ng·h/mL, the AUC(0-t) (male, Sprague-Dawley (SD), iv) was 2800 ng·h/mL and the “AUC(0-t) of 100” value (male, Sprague-Dawley (SD), iv) was 703 ng·h/mL. For the same compound, the “AUC(0-∞) of 100” value (male, Sprague-Dawley (SD), iv) was 707 ng·h/mL, the Tmax (male, Sprague-Dawley (SD), iv) was 15 min and the “Tmax of 100” value (male, Sprague-Dawley (SD), iv) was 15 min. For the same compound, the “Liver-plasma concentration ratio of 100” value [1] was 7.32, the “plasma concentration of 100” value [1] was 3.25 ng/mL and the “AUC(0-last) of 100 in plasma” value (male, Sprague-Dawley, iv) was 703 ng·h/mL. For the same compound, the “AUC(0-t) ratio of liver over plasma, 100” value (male, Sprague-Dawley, iv) was 399, the “AUC(0-∞) of 100 in plasma” value (male, Sprague-Dawley, iv) was 707 ng·h/mL and the “Cmax of 100 in liver” value (male, Sprague-Dawley, iv) was 1895 ng/g. The “Cmax of 100 in plasma” value (male, Sprague-Dawley, iv) was 554 ng/mL, the “Tmax of 100 in liver” value (male, Sprague-Dawley, iv) was 15 min and the “Tmax of 100 in plasma” value (male, Sprague-Dawley, iv) was 15 min. The “plasma concentration of 100” value (male, Sprague-Dawley, iv, 6 h) was 3.25 ng/mL, the “AUC(0-last) of 100 in liver” value (iv) was 2804 ng·h/g and the “AUC(0-∞) of 100 in liver” value (iv) was 2834 ng·h/g. For the same compound, the “AUClast-liver/AUClast-plasma of 100” value (iv) was 399.

For CN1CCN(C(=O)C2C(C(=O)OCC(Cl)(Cl)Cl)[C@H]3CC[C@@H]2O3)CC1 (stereo partly drawn) [Compound 113], the “Liver-plasma concentration ratio of 113” value (male, SD, iv, 1 h) was 1.18, the AUC(0-t) (male, SD, iv, AUClast of 113 in plasma) was 155 ng·h/mL and the Kp at 0.25 h [2] was 0.321. The Kp at 1 h [2] was 1.35, the concentration at 0.25 h [3] was 55.5 ng/g and the concentration at 1 h [3] was 14.6 ng/g. For the same compound, the concentration at 0.25 h [4] was 173 ng/mL, the concentration at 1 h [4] was 10.8 ng/mL and the “plasma concentration of 113” value (male, SD, po, 2 h) was 2.15 ng/mL. The concentration at 0.25 h [5] was 18.3 ng/mL, the concentration at 1 h [5] was 4.61 ng/mL and the concentration at 2 h [5] was 2.15 ng/mL. The “Cmax of 113” value (male, Sprague-Dawley (SD), iv) was 90.4 ng/mL, the Tmax (male, Sprague-Dawley (SD), iv) was 15 min and the Cmax (male, Sprague-Dawley (SD), iv, Cmax of 113) was 46.2 ng/mL. The “F of 113” value (male, Sprague-Dawley (SD), po) was 10.1%, the Tmax (male, Sprague-Dawley (SD), po) was 15 min and the AUC(0-t) (male, Sprague-Dawley (SD), po, AUC(0-t) of 113) was 15.7 ng·h/mL. The Cmax (male, Sprague-Dawley (SD), po, Cmax of 113) was 17.7 ng/mL, the bioavailability (male, Sprague-Dawley) was 10.1% and the Tmax (male, Sprague-Dawley, iv) was 15 min. The Kp (male, Sprague-Dawley, iv, 113) was 18.1, the Kp (male, Sprague-Dawley, iv, 113 (printed in the brain paragraph)) was 30.6 and the Kp at 0.25 h [6] was 0.498. For the same compound, the Kp at 1 h [6] was 0.537, the Cmax (male, Sprague-Dawley, iv, Cmax of 113 in brain) was 90.4 ng/g and the Cmax (male, Sprague-Dawley, iv, Cmax of 113 in liver) was 46.2 ng/g. It also gave a Kp at 1 h (male, Sprague-Dawley, iv, Liver-plasma concentration ratio of 113) of 1.27, a concentration at 0.25 h [7] of 86.2 ng/g and a concentration at 1 h [7] of 5.8 ng/g. The Tmax (male, Sprague-Dawley, po) was 15 min, the AUC(0-t) (male, Sprague-Dawley, po, AUClast of 113 in plasma) was 15.7 ng·h/mL and the Cmax (male, Sprague-Dawley, po, Cmax of 113 in plasma) was 17.7 ng/mL. For the same compound, the “AUC(0-last) of 113 in brain” value (iv) was 47.5 ng·h/g and the “AUC(0-last) of 113 in liver” value (iv) was 28.1 ng·h/g.
